This is an account of results in paper PMC8344761 (Journal of Enzyme Inhibition and Medicinal Chemistry, 2021).

The subject of this test is Huh7 cells xenografted onto CAM. Description: Huh7-xenografted CAM tumour model. It is filed as in vivo, chick. As to conditions: 10 µM final concentration on CAM; Huh7 xenograft. How it is done:
Cancer cell xenograft onto chick chorioallantoic membrane (CAM), an in vivo tumour model, was used to evaluate anti-tumour efficacy of compounds. Fertilised chicken eggs purchased from Byeolbichon Farm (Gyeongbuk, South Korea) were incubated at 37 °C with 55% relative humidity. On day 9 of egg incubation (embryonic day 9, E9), a small hole was made in the shell over the air sac after the selection of bifurcated vessels. Another hole was made on the broadside using a needle by applying negative pressure from the wider part, creating false air sac. Using a grinding wheel (Dremel, Racine, WI), a small window (1 cm^2) was created in the eggshell above the false air sac. For generation of xenograft CAM tumour model, Huh7 cells (1.5 × 10^6 cells/CAM) were inoculated on the CAM with or without test drugs (10 µM final concentration). On day 13 of egg incubation (E13), tumour tissues attached to CAM were resected from the embryo and harvested. Photographs of tumour as well as blood vessel branches were taken using optical microscope (Olympus Corporation, Tokyo, Japan). Tumour tissues were weighted and the number of vessel branch points within the tumour region was counted.

Each structure is given as a SMILES string.

On to `CNC(=O)c1cc(Oc2c(C)nc(NC(=O)Nc3ccc(Cl)c(C(F)(F)F)c3)c(C)c2C)ccn1` [Compound 4, 4-((6–(3-(4-Chloro-3-(trifluoromethyl)phenyl)ureido)-2,4,5-trimethylpyridin-3-yl)oxy)-N-methylpicolinamide], for which the “inhibitory effect on tumour weight” value is recorded as “weaker than that of sorafenib”.
